Experimental data: US9993492B2, “Lysophospholipids and lysophospholipid analogues against honeybee brood diseases” (University of Graz, priority 2013, dated 2018)
Read-outs that look alike come from different tables or passages of the source.

Tests used:
[1] = test system: Paenibacillus larvae; assay: Antimicrobial assay in BHI liquid medium, vegetative forms of Paenibacillus larvae (MIC); format: cell-based; details: for MIC / MIC (ppm): vegetative forms of Pl, liquid medium; for inhibitory / antibacterial activity against Pl (in words): in vitro
Experimental: For the evaluation of certain fatty acids and phospholipids, overnight cultures of vegetative forms of Pl were used (for results see Table 1.1).
(§1) As test organisms, several different strains of Paenibacillus larvae were used.
(§2) Overnight cultures of the vegetative forms of bacteria were prepared in BHI (brain heart infusion) liquid medium.
From these overnight cultures, an inoculum of 50 μl is added to 1.0 ml of BHI liquid medium to perform the bacterial test in liquid medium. The compound 1-O-oleoyl-sn-glycero-3-phosphocholine (oleoyl-LPC) together with a positive control was then added at concentrations of 2, 5 and 10 ppm and the test tubes were incubated for 24 h at 34.5° C. Then, the extinction of the solution was measured photometrically.

[2] = test system: Melissococcus plutonius; assay: Antimicrobial assay in liquid Basal Medium against Melissococcus plutonius (MIC); format: cell-based; details: for MIC / MIC (ppm): M. pl. in BM liquid medium, OE at 600 nm after 5 days; for inhibitory / antibacterial activity against M. pl. (in words): in vitro
Experimental: M. pl. was cultured in liquid Basal Medium (BM) for 4 days at 35° C. and from here serial dilutions were carried out to estimate CFU/ml by plating onto BM agar plates. 5 days later CFU were count and concentration was estimated to be 3.46*10^6 CFU/ml. For the antimicrobial assay, an inoculum of 50 μl of the liquid culture is added to 1 mL of BM liquid medium. A set of different substances were tested in different concentrations (2, 5 and 10 ppm) in order to find out their inhibitory effect against M. pl growth. For substances tested, concentration applied and results see table 1.2. Three replicates per substance were included in the experiment. 5 days after the experiment was started OE (optical extinction) was measured at 600 nm.

[3] = test system: Paenibacillus larvae (Eric II test strain); assay: Inhibition zone test on Columbia agar; format: cell-based; details: amount 30 μg; 24 h, 34.5° C.
Experimental: as §1, §2
For the inhibition zone test, 500 μL of overnight culture were added to 15-20 mL of Columbia agar, mixed and poured onto a petri dish. After the agar solidified, either punched wholes are filled with different amounts of test compounds or test compounds are pipetted on paper discs (5 mm Ø). The plate is then incubated for 24 h (34.5° C.) and zones of inhibition are measured and given in mm. Lactic acid and penicillin G were used as positive controls.
E II—Eric II (test strain of Pl)

[4] = test system: honeybee larvae; format: in vivo; details: for toxicity to honeybee larvae (footnote b): in vivo; for Ndead larvae total: days 1-7
Experimental: First instar larvae were transferred into plastic queen cups and fed the following diets: On the first day 10 μL of diet containing 6% glucose, 6% fructose, 1% yeast extract and 50% royal jelly were fed. Test substances (1-O-oleoyl-sn-glycero-3-phosphocholine (oleoyl-LPC), stearic acid, lysophosphatidylinositol and linoleic acid) were added to the first diet in amounts of 0.5 to 10 μg/larvae. For infection with spores of Paenibacillus larvae, larvae were grafted into 5 μL of diet containing test substances and subsequently 5 μL of diet with about 50 added Pl spores were given. Larvae were not fed on the second day to assure the consumption of the given diet. On the third day 20 μL of diet containing 7.5% glucose, 7.5% fructose, 1.5% yeast extract and 50% royal jelly were fed. Amounts of 30, 40 and 60 μL of diet composed of 9% glucose, 9% fructose, 2% yeast extract and 50% royal jelly were fed on the 4th, 5th and 6th day (method modified after Aupinel et al. [Aupinel et al. 2005. Bull Insectol 58:107-111]. Larvae were incubated at 34.5° C. and 95% relative humidity which was reduced to 80% on day 7. The mortality was checked daily for the first 7 days and when individuals emerged from queen cups at day 18 after the transfer into cups. To reduce the time for sporulation of Pl in the lab for security reasons, infection tests with Pl spores were stopped at day 7 with some experiments extend to day 12.
Larvae were fed according to a slightly modified rearing method of Aupinel et al., (2005). Larvae were fed for 6 days with different amounts of diets which always contained 50% of an aqueous solution (A, B, C) and 50% royal jelly (w/w). The solutions consisted of yeast extract (A=2%, B=3%, C=4%), glucose and fructose (A=12%, B=15%, C=18% each). 50 g portions of royal jelly (purchased from the Styrian school of beekeepers) were freeze stored at −20° C. Once a day all components of the needed diet were mixed freshly, warmed and fed to the larvae with a micro-pipette. On day 1 and 2 each larva was fed with 10 μL of diet A, on day three with 20 μL of diet B, on day four (30 μL), five (40 μL) and six (50 μL) with diet C. This way, each larva was supported with a total amount of 160 μL of food. The test compounds (see Table 4) were added each at the respective concentration on day 1, i.e. stearic acid (10 μg/larva), lysophosphatidylinositol (5 μg/larva), linoleic acid (12 μg/larva) and oleyol-LPC (10 μg/larva). Each larva was checked for its state of health under the binocular before feeding. A larva was defined healthy when movements of spiracles could be observed and it was shiny and plump. Cups with dead larvae were removed from the plate to prevent infections. To avoid microbial contamination, feeding took place under a laminar flow. Larvae were incubated at 34.5° C. and 90% RH. The mortality rates of the larvae are given below in table 4.1.

[5] = test system: spores of Paenibacillus larvae; assay: Spore assay in BHI liquid medium with plating for CFU; format: cell-based; details: lowest investigated dose (5 ppm); 114.6±28.4 spores per vial; 4 and 6 days
Experimental: A stock solution containing spores at a known concentration is used to inoculate c. 100 spores/mL medium. This assay is carried out in 20 mL cultivation tubes containing 1.0 mL of BHI (brain heart infusion) liquid medium. To this medium containing c. […] spores, test compounds are added at different concentrations (e.g., 2, 5 and 10 ppm), together with positive control (penicillin G at 5 ppm) and blank control.
To verify inoculation with c. 100 spores/mL, tubes containing BHI+spores are plated out immediately on agar plates to assess the number of colony forming units (CFU) after 6 days of incubation at 34.5° C.
For the control of viability of the spores, the turbidity (due to germination of spores and formation of vegetative forms) of tubes containing BHI+spores is evaluated on day 4.
For the test probes, bacterial growth is evaluated on day 4 and 6. For those tubes which are negative for bacterial growth, the whole medium (c. 1 mL) is plated onto agar plates and evaluated for CFUs after 2 and 6 days of incubation. CFUs visible after two days result from vegetative forms, while CFUs appearing after […] stem from spores.
The results of these tests allow identifying whether the tested compounds have an effect on spore germination in liquid medium and the viability of the spores as assessed by their germination on agar plates. […]

[6] = Paenibacillus larvae, 24 h, read-out: MIC (ppm)
[7] = Paenibacillus larvae, read-out: MIC
[8] = Melissococcus plutonius, 120 h, read-out: MIC
[9] = Melissococcus plutonius, 120 h, read-out: MIC (ppm)
[10] = linoleic acid 12 μg/larva added on day 1, Nlarvae 48
[11] = stearic acid 10 μg/larva added on day 1, Nlarvae 96
[12] = LPI 5 μg/larva added on day 1, Nlarvae 96

Row | Molecule | MIC [1, 6] [µg/mL] | MIC [1, 7] [µM] | inhibitory / antibacterial activity against Pl (in words) [1] | MIC [2, 8] [µM] | MIC [2, 9] [µg/mL] | inhibitory / antibacterial activity against M. pl. (in words) [2] | also measured
1 | CCCCCCCCCCCCCCCCCC(=O)OC[C@@H](O)COP(=O)([O-])OCC[N+](C)(C)C [1-O-stearoyl-sn-glycero-3-phosphocholine] | 5 | > 9.5 | good in vitro Pl inhibitory activity | > 5.7 | 3 | – | –
2 | CC(O)C(=O)O (stereo not shown) [LA (C+), lactic acid] | – | – | – | – | – | – | Inhibition zone (mm) [3]: 5 mm
3 | CCCCC/C=C\C/C=C\CCCCCCCC(=O)O [linoleic acid] | 0.5 | 1.8 | – | 3.6 | 1 | – | toxicity to honeybee larvae (footnote b) [4]: ^btoxic to honeybee larvae; Ndead larvae day 1 [4, 10]: 0; Ndead larvae day 2 [4, 10]: 18; Ndead larvae day 3 [4, 10]: 2; Ndead larvae day 4 [4, 10]: 3; Ndead larvae day 5 [4, 10]: 1; Ndead larvae day 6 [4, 10]: 1; Ndead larvae day 7 [4, 10]: 1; Ndead larvae total [4, 10]: 26
4 | CCCCCCCCCCCCCCCCOP(=O)([O-])OCC[N+](C)(C)C [miltefosine, hexadecylphosphocholine] | 2 to 5 | 7.4 | good in vitro Pl and M. pl. inhibitory activity | 4.9 | 2 | good in vitro Pl and M. pl. inhibitory activity | killing of vegetative forms upon germination of spores [5]: all vegetative forms are killed
5 | CCCCCCCC/C=C\CCCCCCCC(=O)O [oleic acid] | 1 | 3.5 | – | 3.5 | 1 | – | toxicity to honeybee larvae (footnote b) [4]: ^btoxic to honeybee larvae
6 | CCCCCCCCCCCCCCCC(=O)O [palmitic acid] | > 20 | > 78 | – | > 40 | > 15 | – | –
7 | CCCCCCCCCCCCCCCCCCOP(=O)([O-])OC1CC[N+](C)(C)CC1 [perifosine, 1,1-dimethylpiperidinium-4-yl octadecyl phosphate] | 2 | 4.3 | good in vitro Pl and M. pl. inhibitory activity | 4.3 | 2 | good in vitro Pl and M. pl. inhibitory activity | –
8 | CCCCCCCCCCCCCCCCCC(=O)O [stearic acid] | > 20 | > 70 | – | > 35 | > 10 | – | Ndead larvae day 1 [4, 11]: 0; Ndead larvae day 2 [4, 11]: 0; Ndead larvae day 3 [4, 11]: 1; Ndead larvae day 4 [4, 11]: 0; Ndead larvae day 5 [4, 11]: 1; Ndead larvae day 6 [4, 11]: 3; Ndead larvae day 7 [4, 11]: 1; Ndead larvae total [4, 11]: 6
9 | L-α-lysophosphatidylinositol | – | – | did not show significant inhibitory activity | – | – | did not show significant inhibitory activity | Ndead larvae day 1 [4, 12]: 0; Ndead larvae day 2 [4, 12]: 0; Ndead larvae day 3 [4, 12]: 0; Ndead larvae day 4 [4, 12]: 0; Ndead larvae day 5 [4, 12]: 1; Ndead larvae day 6 [4, 12]: 1; Ndead larvae day 7 [4, 12]: 2; Ndead larvae total [4, 12]: 4; MIC (ppm) [1]: >50 ppm; MIC ([1]; read-out: MIC): >80 µM; MIC (ppm) [2]: >10 ppm; MIC ([2]; read-out: MIC): >15 µM
10 | lysophosphatidylcholine | – | – | – | – | – | – | larval mortality compared with control group ([4]; single dose fed on day one, up to 1-2% of fresh body weight of larvae younger than one day, assessed on day 7): no higher mortality than found in the control group; MIC (ppm) [1]: 2-5 ppm; MIC (ppm) [2]: 2-5 ppm
